For nine molecules, TGI and GI50 results are on record in PubChem BioAssay (NCI).

Molecules are shown by their SMILES. Where “and” joins values, the source holds several entries; their conditions need not be identical. Equal entries are not always repeated.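 Results reflect a 48-hour exposure of cells in 96-well plates to compound at five concentrations. GI50 = concentration required for 50% inhibition of growth. Definition used: TGI = concentration required for complete inhibition of growth.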

Usually TGI stands for the concentration at which net growth stops. A low value points to more potent growth arrest. What is called GI50 is the concentration at which growth is held to half of that of the control.

Assay in all cases: DTP human tumour cell line panel, 48 h
Experiment [1] concerns MOLT-4 leukemia.
In experiment [2] the test system is IGROV1 ovarian.
Experiment [3] has as its system 786-0 renal.
For experiment [4], the system named is EKVX NSCLC.
Experiment [5] deals with HCC-2998 colon.
For experiment [6], the system named is HCT-15 colon.
Experiment [7] relates to SK-MEL-28 melanoma.
Experiment [8] concerns OVCAR-3 ovarian.
Experiment [9] relates to NCI-H226 lung.
Experiment [10] concerns CCRF-CEM leukemia.

In the case of `COC(=N)c1csc(C2OC(CO)C(O)C2O)n1` (stereo not given), the TGI in experiment [1], in experiment [2], in experiment [3], in experiment [4], in experiment [5] and in experiment [6] was over 100 µM each time. Also, the total growth inhibition concentration (TGI) in [7], in [8], in [9] and in experiment [10] was over 100 µM in each case.

Take `Cc1nc2c(Br)cc(Br)cc2c(=O)n1-c1nnc(-c2cccc(Cl)c2Cl)c(N)n1`: the GI50 in experiment [1] is 15.3 µM; in experiment [2] it was 15 µM; in [3], 18.4 µM; in experiment [4], 22.1 µM; in experiment [5] it was 17.6 µM; in [6] it was 15.4 µM. In addition, the GI50 was 65.4 µM in experiment [7], 18.6 µM in experiment [8], 21.3 µM in experiment [9] and 19.3 µM in experiment [10]. For the same molecule, the TGI in experiment [1] is 62.1 µM; in experiment [2], 55.1 µM; in experiment [3] it was 48.2 µM; in [4] it was over 100 µM; in experiment [5], 41.3 µM; in experiment [6], 50.9 µM. For the same molecule, the TGI was over 100 µM in experiment [7], 60.4 µM in [8], 59.6 µM in experiment [9] and over 100 µM in experiment [10].

With `CCOC(=O)Nc1c(C)nc2ccccn12`, the GI50 in experiment [1], in [2], in experiment [3], in [4], in experiment [5] and in experiment [6] was over 100 µM in each case. The GI50 in experiment [7], in experiment [8], in [9] and in experiment [10] was over 100 µM in each case. The TGI in experiment [1], in [2], in [3], in [4], in experiment [5] and in experiment [6] was over 100 µM throughout. Further, the TGI in experiment [7], in [8], in experiment [9] and in experiment [10] was over 100 µM throughout.

As to `Cc1cccc(NC2=C(Cl)C(=O)c3nc(C)ccc3C2=O)c1`, the GI50 was 2.2 µM in [1]; 1.18 µM in experiment [2]; 1.79 µM in experiment [3]; 1.47 µM in experiment [4]; 1.69 µM in experiment [5]; 0.431 µM in [6]. In addition, the GI50 is 1.71 µM in experiment [7], 0.262 µM in [8], 1.1 µM in experiment [9] and 2.29 µM in experiment [10]. Moreover, the concentration for total growth inhibition (TGI) in experiment [1] is over 100 µM; in experiment [2], 2.6 µM; in experiment [3] it was 3.36 µM; in [4], 2.8 µM; in experiment [5], 3.22 µM; in [6], 2.09 µM. Moreover, the TGI in [7] is 3.14 µM; in [8], 1.18 µM; in experiment [9] it was 2.78 µM; in experiment [10] it was over 100 µM.

For the molecule `CCCN(CCC)c1c([N+](=O)[O-])cc(C(=O)N(CC)CC)cc1[N+](=O)[O-]`, the TGI was 50 µM in experiment [1]; over 100 µM in [2]; over 100 µM in experiment [3]; 61.3 µM in [4]; over 100 µM in experiment [5]; 90.9 µM in experiment [6]. For the same molecule, the TGI came out at 64.6 µM in experiment [7], 33.3 µM in [8], 71.3 µM in experiment [9] and 60.9 µM in experiment [10].

In the case of `COc1ccc(-c2c(C#N)c(N3CCOCC3)nc3[nH]c(=S)[nH]c(=S)c23)cc1OC`, the GI50 in [1] is 39.6 µM; in [2] it was over 100 µM; in experiment [3] it was 30.7 µM; in experiment [4], over 100 µM; in experiment [5] it was 36 µM; in experiment [6], 43.6 µM. Also, the GI50 in [7] was over 100 µM; in experiment [8] it was 34.6 µM; in experiment [9] it was 18.8 µM; in experiment [10], 41.3 µM. Besides, the concentration for total growth inhibition (TGI) in experiment [1], in experiment [2], in experiment [3], in experiment [4], in experiment [5] and in [6] was over 100 µM in each case. Besides, the TGI was over 100 µM in [7], over 100 µM in experiment [8], 89.6 µM in experiment [9] and over 100 µM in [10].

In the case of `CCn1cc(-c2ccnc3[nH]c(-c4cccc(CN(C)C)c4)cc23)c(-c2ccc(NC(=O)N(C)C)cc2)n1`, the GI50 was 2.15 µM and 1.74 µM in [1]; 3.47 µM and 1.9 µM in experiment [2]; 2.79 µM and 2.59 µM in experiment [3]; 3.87 µM in experiment [4]; 7.29 µM and > 10 µM in experiment [5]; 2.85 µM and 3.15 µM in experiment [6]. Moreover, the GI50 in [7] was 3.45 µM and > 10 µM; in experiment [8], 3.82 µM and 3.15 µM; in experiment [9], 0.25 µM and 0.451 µM; in [10], under 0.01 µM. Moreover, the TGI is 39.3 µM and > 10 µM in experiment [1]; 33.2 µM and > 10 µM in experiment [2]; 20.3 µM and > 10 µM in experiment [3]; over 10 µM in [4]; 21.5 µM and > 10 µM in experiment [5]; 27.2 µM and > 10 µM in [6]. Besides, the TGI in experiment [7] is 17.1 µM and > 10 µM; in experiment [8], 23.9 µM and > 10 µM; in experiment [9] it was 16.2 µM and > 10 µM; in experiment [10] it was 51.6 µM.

`CCOC(=O)C(Br)=C1OC(=O)c2ccccc2-c2ccccc21` (mixture of isomers): the TGI is 47.6 µM in experiment [1]; 34.4 µM in experiment [2]; 32.7 µM in [3]; over 100 µM in [4]; 38 µM in experiment [5]; 40 µM in experiment [6]. The TGI in experiment [7] was determined as 37.8 µM; in [8], 35.9 µM; in experiment [9], 60.4 µM; in [10] it was 40.2 µM.

For the molecule `Cc1cc2c(cc1C)[n+](=O)cc(C(=O)C/C(=N/NC(=S)NN)C(=O)Nc1cccc(C(F)(F)F)c1)n2[O-]`, the TGI in experiment [1], in experiment [2], in experiment [3], in [4], in experiment [5] and in experiment [6] was over 100 µM each time. For the same molecule, the TGI in [7], in experiment [8], in experiment [9] and in [10] was over 100 µM in each case.
